How the values were obtained:
Assay type in all cases: cell-based, human
[1] = test system: 786-0, A549 and HMLE-TWIST cells; experiment: Order of chaetocin and chemotherapy, caspase-3 cleavage
Experimental: FIGS. 4D-4E show a set of bar plots and schematics of experiments in which chaetocin (80 nM) was administered for 15 hours either alone, two days before (FIG. 4E) or after a 2 day treatment with a chemotherapeutic drug (FIG. 4D; 300 nM cisplatin or 10 nM Doxorubicin) to 786-0 clear cell renal carcinoma cells, A549 lung cancer cells, and HMLE-TWIST (E-Twist) breast cancer cells. Cell death was assayed with cleaved caspase 3 fluorescent intensity. These experiments were designed to test the prediction of an epigenetic model for chaetocin-mediated reversal of chemotherapy resistance, namely that chaetocin must be added transiently for a short duration (15 hours) 2 days prior to chemotherapy to sensitize the cells to treatment. If the order was reversed (FIG. 4D), there should be no effect. The results of FIGS. 4A-4E indicate that chaetocin primes cancer cells for apoptotic death by chemotherapy through epigenetic reversal of chemotherapy resistance.
In a separate set of experiments, to test the generality of chaetocin in reversing the chemotherapy resistance of mesenchymal, TIC-rich cancers, well-characterized mesenchymal TIC-rich cell lines from ccRCC 786-0 and lung cancer cells (A549) were used along with HMLE-TWIST cells described above. […]

HMLE-TWIST cells = experiment: E-cadherin (E-cad) level after chaetocin pulse; conditions: 80 nM or 200 nM for 15 hours, then 1, 2, 4 days chaetocin-free
Experimental: Levels of an epithelial marker, E-cadherin (E-cad) were assayed at 15H, 1 D, 2D, and 4D after chaetocin treatment and the fraction of E-cad positive cells was quantified.
To molecularly test whether chaetocin treatment converts mesenchymal cells into epithelial cells, HMLE-TWIST cells were treated with a pulse of chaetocin for 15 hours (15H), washed and then incubated in chaetocin-free media for 1 day (1D), 2 days (2D), and 4 days (4D). Levels of the ubiquitous epithelial marker E-cadherin (E-cad) was assayed using Western blots throughout the experiment.

HMLE-SNAIL spheroids = experiment: 3-D tumor spheroid assay (Sytox/DAPI staining); conditions: Sytox staining
Text: FIGS. 1F-1I show the results of a 3-D tumor spheroid assay formed by the chemotherapy-resistant breast cancer cell line, HMLE-SNAIL. […] Tumor spheroids are a model of real in vivo tumors, as they form a 3-D cell mass in which the hypoxic and often nutrient depleted microenvironment at the center of the tumor is enriched with mesenchymal, chemotherapy-resistant TIC cells. […] By staining spheroids with Sytox, which stains dead cells green, and DAPI, which stains the nuclei of all cells (living or dead), total fraction of dead cells is calculated. Also, the location of dead cells within the sphere is visualized with Sytox (green) staining. The results of FIGS. 1F-1I indicate that chaetocin a selective and potent killer of inner cells of the spheroids, enriched with mesenchymal, chemotherapy-resistant TIC cells, compared to other compounds tested. FIGS. 1J-1K show the results of a tumorsphere assay performed with TICs grown on serum-free, non-adherent culture conditions. […] The results of FIGS. 1J-1K indicate that chaetocin is effective in eliminating TICs in a dose dependent-manner.
To determine whether chaetocin affects TIC death in a tumor-like environment, 3-D tumor spheroid assays were performed in the presence or absence of chaetocin. Tumor spheroids are a model of a real tumor, as they form a 3-D cell mass similar to tumors in vivo. The local microenvironment of a spheroid recapitulates many of the in vivo properties of tumor. Importantly, the hypoxic and often nutrient depleted microenvironment at the center of the tumor is favorable for converting epithelial, non-TIC, chemotherapy-sensitive cancer cells into mesenchymal, TIC-rich, chemotherapy-resistant cells. […] Pharmacological agents were added and cell viability was calculated by staining cells with Sytox, which stains dead cells green, and DAPI, which stains the nuclei of all cells (living or dead). to provide the total cell number. Using this method, the total fraction of dead cells was calculated and compared between different drug conditions. More importantly, the location of dead cells within the sphere is visualized with Sytox (green) staining. FIGS. 1G-1I show fluorescence images of tumor spheroids under control conditions (no treatment; FIG. 1G), under treatment with various experimental chemotherapeutic agents (Y-27632, LY-450139, and IWP-L6 (Wnt); FIG. 1H), and with chaetocin treatment (FIG. 1I). […] This family of kinases are thought to be important for survival of TIC cells. IWP-L6 is an inhibitor of Wnt pathway—a pathway important for TIC cell survival and formation. LY-450139 is a NOTCH pathway inhibitor. NOTCH is also important for TIC cell viability and survival. […]

[2] = test system: patient-derived TMZ-resistant glioblastoma (GBM) cell line; experiment: Spheroid cell confluence, co-treatment with TMZ
Experimental: FIGS. 13A and 13B depict the response of a patient-derived TMZ-resistant glioblastoma (GBM) cell line to TMZ (Temozolomide). The cells were grown in suspension into spheroids after which they were treated with TMZ (100 uM), chaetocin (50 uM) or both (TMZ 100 uM, chaetocin 50 uM were administered at the same time). Cell confluence, an assay for spheroid size, was measured. The top graph depicts the response of the TMZ-resistant cell line to TMZ (100 uM) alone. Bottom graph depicts the response of the TMZ-resistant cell line to single agent and double agent treatments.
FIG. 14 depicts the response of a patient-derived TMZ-resistant glioblastoma (GBM) cell line to TMZ (Temozolomide). The cells were grown in suspension into spheroids after which they were treated with TMZ (50, 100, 200, 400 μM), chaetocin (50 uM) or both (TMZ at 50, 100, 200, or 400 μM together with chaetocin at 50 uM). […] Cell confluence, an assay for spheroid size, was measured.
A short exposure to chaetocin is sufficient to cause an epigenetic change, reprogramming mesenchymal, TIC-rich cancer cells into an epithelial fate while sensitizing them to chemotherapy. […] Cell confluence, an assay for spheroid size, was measured to determine if cell growth was inhibited (flat curve) or spheroid sizes were reduced (indicator of cell death and spheroid shrinkage). […]

CN1C(=O)[C@@]23C[C@]4([C@]56C[C@@]78SS[C@](CO)(C(=O)N7[C@H]5Nc5ccccc56)N(C)C8=O)c5ccccc5N[C@@H]4N2C(=O)[C@@]1(CO)SS3 [chaetocin]
sensitization to chemotherapy (caspase-3 cleavage) ([1]; 80 nM for 15 hours, 2 days before cisplatin or doxorubicin): sensitizes them to chemotherapeutic killing
sensitization to chemotherapy (caspase-3 cleavage) ([1]; order reversed: chaetocin after chemotherapy): did not produce similar chemotherapeutic killing of cells
E-cadherin level (mesenchymal to epithelial conversion) (HMLE-TWIST cells): stable epigenetic change in cell phenotype converting mesenchymal cancer cells into epithelial ones
location of dead cells within spheroid (HMLE-SNAIL spheroids): preferentially and effectively kills the inner spheroid cells
sensitization to TMZ (cell confluence / spheroid size) ([2]; chaetocin 50 uM with TMZ 100 uM added at the same time): sensitization of the TMZ-resistant cell line to TMZ treatment
sensitization to TMZ (cell confluence / spheroid size) ([2]; chaetocin 50 uM with TMZ 50, 100, 200, 400 uM added at the same time): sensitizes the cells to TMZ treatment versus single treatment with TMZ or chaetocin

From patent US12396996B2, “Compounds, pharmaceutical compositions, and methods of their use in reversing cancer chemoresistance” (priority 2019, dated 2025)
